US20230372498A1, “PLK1 SELECTIVE DEGRADATION INDUCING COMPOUND” (UPPTHERA, priority 2020, published 2023)

Molecular target: T1, PLK1 (Homo sapiens, UniProt P53350)
T1 construct: endogenous in cells; host or cells: HeLa
Assay: PLK1 protein degradation in HeLa cells, Western blotting (PLK1/GAPDH ratio)
Assay type: cell-based
Settings: for Dmax: thymidine block and release, 10 points three-fold from 3 μM, PLK1 to GAPDH ratio, read-out: Dmax; for Dmax / DC50: 6 hours compound incubation; for DC50: measured only if the grade of Dmax is A or B
From the text: The HeLa cell line was purchased from Korea Cell Line Bank (KCLB), Seoul, Korea. The passage in cell culture was maintained at P115 to P125.
For cell culture, DMEM (Gibco, Cat. No. 1195-65; Lot. No. 2085318), FBS (Gibco, Cat. No. 16000-044; Lot. No. 2097593), Penicillin/Streptomycin (PS) (Gibco, Cat. No. 15140-122; Lot. No. 2058855), 100 mm^2 cell culture dish (SPL, Cat. No. 20100), 150 mm^2 cell culture dish (SPL, Cat. No. 20150), 12-well culture plate (SPL, Cat. No. 30012), PBS pH 7.4 (Gibco, Cat. No. 10010-023; Lot. No. 2085080), TrypLE™ Express (Gibco, Cat. No. 12605-010; Lot No. 2070638), Counting Chamber (Hematocytometer) (Hirschmann, Cat. No. 8100204), and 0.4% Trypan Blue Solution (DYNEBIO, Cat. No. CBT3710; Lot. No. 20190723) were used.
2×10^5 cells were seeded for each well of a 12-well plate (SPL), and the cells were cultured in the culture medium in a total volume of 2 ml.
The compounds of Examples were completely dissolved in DMSO and used in the experiment, and thymidine was completely dissolved in DW and used in the experiment. For thymidine block, the products were treated with 2 mM of thymidine (Sigma-Aldrich Cat. No. T9250-5G) and then incubated for 24 hours.
For release and chemical treatment, the medium was suctioned and washed 3 times with 1×PBS. Complete media was added, followed by incubation for 4 hours in a CO2 incubator. Each compound was diluted three folds from the highest concentration of 3 μM to the lowest concentration in 10 points and then incubated for 6 hours again.
For SDS-PAGE and Western blotting, 1×RIPA lysis buffer (Rockland, Cat. No. MB-030-0050; Lot no. 39751), 100× Protease Inhibitor Cocktail (Quartett, Cat. No. PPI1015; Lot no. PCO50038424), Pierce™ BCA protein assay kit (ThermoScientific, Cat. No. 23225; Lot no. UC276876), albumin standard (ThermoScientific, Cat. No. 23209; Lot no. UB269561), 4-15% Mini-PROTEAN TGX stain-free gel (Bio-rad, Cat. No. 4568085; Lot no. L007041B), 10× Tris/Glycine/SDS buffer (Bio-rad, Cat. No. 1610732; Lot no. 10000044375B); 10×TBS (Bio-rad, Cat. No. 1706435; Lot no. 1000045140B), 10% Tween 20 (Cat. No. 1610781; Lot no. L004152B), Color protein standard broad range (NEB, Cat. No. P7719S; Lot no. 10040349), 4× Laemmli sample buffer (Bio-rad, Cat. No. 1610747; Lot no. L004133B), β-mercaptoethanol (Sigma-Aldrich, Cat. No. M3148; Lot no. 60-24-2), SuperBlock™ T20 (TBS) blocking buffer (ThermoScientific, Cat. No. 37536; Lot no. UC282578), 1M sodium azide solution (Sigma-Aldrich, Cat. No. 08591-1 mL-F; Lot no. BCBV4989), α-Rabbit pAb to Ms IgG (abcam, Cat. No. ab97046; Lot no. GR3252115-1), α-Goat pAb to Rb IgG (CST, Cat. No. 7074S; Lot no. 28), α-GAPDH (abcam, Cat. No. ab8245; Lot no. GR3275542-2), α-Plk1 (CST, Cat. No. 208G4), α-BRD4 (CST, Cat. No. 13440S), ECL™ Prime western blotting reagents (GE Healthcare, Cat. No. RPN2232; Lot no. 17001655), Ponceau S solution (Sigma-Aldrich, Cat. No. P7170; Lot no. SLBV4112), Difco™ Skim milk (BD, Cat. No. 232100; Lot no. 8346795), and iBlot® 2 NC Regular stacks (Invitrogen, Cat. No. IB323001; Lot no. 2NR110619-02) were used.
For cell harvesting, the cells were first separated from the plate using trypsin and then washed with the medium and PBS. Specifically, the medium was suctioned off and washed with 1 mL of PBS, and PBS was suctioned off. The cells were treated with 0.5 mL TrypLE™ Express at 37° C. for 7 minutes to separate the cells, and then 0.5 mL of complete medium was added to collect 1 mL of cell culture solution. Then, 1 mL of the cell collection solution was centrifuged at 8,000 rpm for 120 seconds, and the supernatant was removed. After washing with 0.2 mL of PBS, the PBS was removed.
For cell lysis, a lysis buffer was added and cell debris was removed to obtain a cell lysate. Specifically, the cells were treated with 70 μL of 1×RIPA buffer containing a protease inhibitor and incubated for 30 minutes on ice. Then, the cells were centrifuged at 4° C. and 15,000 rpm for 10 minutes to obtain a cell lysate. […]

T1 sequence (P53350 whole entry): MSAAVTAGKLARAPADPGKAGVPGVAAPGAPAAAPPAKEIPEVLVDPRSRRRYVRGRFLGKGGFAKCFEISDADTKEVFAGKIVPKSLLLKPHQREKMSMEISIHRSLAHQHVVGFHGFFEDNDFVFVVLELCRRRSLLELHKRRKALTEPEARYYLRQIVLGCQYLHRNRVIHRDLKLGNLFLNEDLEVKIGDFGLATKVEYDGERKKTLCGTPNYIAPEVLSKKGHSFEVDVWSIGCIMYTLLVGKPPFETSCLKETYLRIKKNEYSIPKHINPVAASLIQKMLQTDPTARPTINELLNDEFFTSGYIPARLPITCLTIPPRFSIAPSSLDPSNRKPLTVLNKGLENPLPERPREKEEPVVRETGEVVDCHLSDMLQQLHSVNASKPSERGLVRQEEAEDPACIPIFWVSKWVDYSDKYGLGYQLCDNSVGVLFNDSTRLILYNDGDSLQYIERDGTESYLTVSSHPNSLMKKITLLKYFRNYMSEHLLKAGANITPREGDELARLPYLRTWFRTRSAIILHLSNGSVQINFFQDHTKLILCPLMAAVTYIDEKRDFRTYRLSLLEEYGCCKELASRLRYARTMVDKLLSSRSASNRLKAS

| Compound | Dmax [%] | DC50 [µM] | PLK1 protein degradability (western blot, FIG. 1 and 2) (in comparison with Comparative Compounds) |
| --- | --- | --- | --- |
| CN1C(=O)C(F)(F)CN(C2CCCC2)c2nc(Nc3ccc(C(=O)NCCCOCCCOCCNc4cccc5c4C(=O)N(C4CCC(=O)NC4=O)C5=O)cc3)ncc21 (stereo not shown) [Example 170, 4-((9-cyclopentyl-7,7-difluoro-5-methyl-6-oxo-6,7,8,9-tetrahydro-5H-pyrimido[4,5-b][1,4]diazepin-2-yl)amino)-N-(3-(3-(2-((2-(2,6-dioxopiperidin-3-yl)-1,3-dioxoisoindolin-4-yl)amino)ethoxy)propoxy)propyl)benzamide] | ≥ 80 | – | – |
| COc1cc(C(=O)N[C@@H]2CCN(C(=O)CCCN3CCN(c4ccc5c(c4)C(=O)N(C4CCC(=O)NC4=O)C5=O)CC3)C2)c(F)cc1Nc1ncc2c(n1)N(C1CCCC1)CC(F)(F)C(=O)N2C (stereo partly drawn) [Compound 138, 4-((9-cyclopentyl-7,7-difluoro-5-methyl-6-oxo-6,7,8,9-tetrahydro-5H-pyrimido[4,5-b][1,4]diazepin-2-yl)amino)-N-((3R)-1-(4-(4-(2-(2,6-dioxopiperidin-3-yl)-1,3-dioxoisoindolin-5-yl)piperazin-1-yl)butanoyl)pyrrolidin-3-yl)-2-fluoro-5-methoxybenzamide] | ≥ 80 | ≤ 0.05 | – |
| CN1C(=O)C(F)(F)CN(C2CCCC2)c2nc(Nc3cc(F)c(C(=O)NC4CCN(CCOCCOCCNc5cccc6c5C(=O)N(C5CCC(=O)NC5=O)C6=O)CC4)cc3OCCO)ncc21 (stereo not shown) [Example 97, 4-((9-cyclopentyl-7,7-difluoro-5-methyl-6-oxo-6,7,8,9-tetrahydro-5H-pyrimido[4,5-b][1,4]diazepin-2-yl)amino)-N-(1-(2-(2-(2-((2-(2,6-dioxopiperidin-3-yl)-1,3-dioxoisoindolin-4-yl)amino)ethoxy)ethoxy)ethyl)piperidin-4-yl)-2-fluoro-5-(2-hydroxyethoxy)benzamide] | < 60 | – | – |
| CN1C(=O)C(F)(F)CN(C2CCCC2)c2nc(Nc3ccc(C(=O)NC4CCN(CCOCCOCCNc5cccc6c5C(=O)N(C5CCC(=O)NC5=O)C6=O)CC4)cc3OCCO)ncc21 (stereo not shown) [Example 98, 4-((9-cyclopentyl-7,7-difluoro-5-methyl-6-oxo-6,7,8,9-tetrahydro-5H-pyrimido[4,5-b][1,4]diazepin-2-yl)amino)-N-(1-(2-(2-(2-((2-(2,6-dioxopiperidin-3-yl)-1,3-dioxoisoindolin-4-yl)amino)ethoxy)ethoxy)ethyl)piperidin-4-yl)-3-(2-hydroxyethoxy)benzamide] | 60 to 80 | ≤ 0.5 | – |
| COc1cc(C(=O)NC2CCN(CCOCCOCCOCCOCCOCCOCCOCCNc3cccc4c3C(=O)N(C3CCC(=O)NC3=O)C4=O)CC2)c(F)cc1Nc1ncc2c(n1)N(C1CCCC1)CC(F)(F)C(=O)N2C (stereo not shown) [Example 172, 4-((9-cyclopentyl-7,7-difluoro-5-methyl-6-oxo-6,7,8,9-tetrahydro-5H-pyrimido[4,5-b][1,4]diazepin-2-yl)amino)-N-(1-(23-((2-(2,6-dioxopiperidin-3-yl)-1,3-dioxoisoindolin-4-yl)amino)-3,6,9,12,15,18,21-heptaoxatricosyl)piperidin-4-yl)-2-fluoro-5-methoxybenzamide] | ≥ 80 | – | – |
| COc1cc(C(=O)N[C@H]2CCN(C(=O)CCN3CCN(c4ccc5c(c4)C(=O)N(C4CCC(=O)NC4=O)C5=O)CC3)C2)c(F)cc1Nc1ncc2c(n1)N(C1CCCC1)CC(F)(F)C(=O)N2C (stereo partly drawn) [Compound 136, 4-((9-cyclopentyl-7,7-difluoro-5-methyl-6-oxo-6,7,8,9-tetrahydro-5H-pyrimido[4,5-b][1,4]diazepin-2-yl)amino)-N-((3S)-1-(3-(4-(2-(2,6-dioxopiperidin-3-yl)-1,3-dioxoisoindolin-5-yl)piperazin-1-yl)propanoyl)pyrrolidin-3-yl)-2-fluoro-5-methoxybenzamide] | ≥ 80 | ≤ 0.05 | – |
| COc1cc(C(=O)NCCCOCCCOCCNc2cccc3c2C(=O)N(C2CCC(=O)NC2=O)C3=O)c(F)cc1Nc1ncc2c(n1)N(C1CCCC1)CC(F)(F)C(=O)N2C (stereo not shown) [Compound 157, 4-((9-cyclopentyl-7,7-difluoro-5-methyl-6-oxo-6,7,8,9-tetrahydro-5H-pyrimido[4,5-b][1,4]diazepin-2-yl)amino)-N-(3-(3-(2-((2-(2,6-dioxopiperidin-3-yl)-1,3-dioxoisoindolin-4-yl)amino)ethoxy)propoxy)propyl)-2-fluoro-5-methoxybenzamide] | ≥ 80 | ≤ 0.05 | – |
| COc1cc(C(=O)NC2CCN(C(=O)CCOCCNc3cccc4c3C(=O)N(C3CCC(=O)NC3=O)C4=O)C2)c(F)cc1Nc1ncc2c(n1)N(C1CCCC1)CC(F)(F)C(=O)N2C (stereo not shown) [Compound 114, 4-((9-cyclopentyl-7,7-difluoro-5-methyl-6-oxo-6,7,8,9-tetrahydro-5H-pyrimido[4,5-b][1,4]diazepin-2-yl)amino)-N-(1-(3-(2-((2-(2,6-dioxopiperidin-3-yl)-1,3-dioxoisoindolin-4-yl)amino)ethoxy)propanoyl)pyrrolidin-3-yl)-2-fluoro-5-methoxybenzamide] | ≥ 80 | ≤ 0.05 | – |
| COc1cc(C(=O)NC2CCN(CCCCCCCc3cccc(CNC(=O)COc4cccc5c4C(=O)N(C4CCC(=O)NC4=O)C5=O)c3)CC2)c(F)cc1Nc1ncc2c(n1)N(C1CCCC1)CC(F)(F)C(=O)N2C (stereo not shown) [Compound 63, 4-((9-cyclopentyl-7,7-difluoro-5-methyl-6-oxo-6,7,8,9-tetrahydro-5H-pyrimido[4,5-b][1,4]diazepin-2-yl)amino)-N-(1-(7-(3-((2-((2-(2,6-dioxopiperidin-3-yl)-1,3-dioxoisoindolin-4-yl)oxy)acetamido)methyl)phenyl)heptyl)piperidin-4-yl)-2-fluoro-5-methoxybenzamide] | ≥ 80 | ≤ 0.05 | – |
| COc1cc(C(=O)NC2CCN(CCOCCOCC(=O)N[C@H](C(=O)N3C[C@H](O)C[C@H]3C(=O)NCc3ccc(-c4scnc4C)cc3)C(C)(C)C)CC2)c(F)cc1Nc1ncc2c(n1)N(C1CCCC1)CC(F)(F)C(=O)N2C [Compound 80] | < 60 | – | – |
| COc1cc(C(=O)NC2CCN(CCOCCNc3cccc4c3C(=O)N(C3CCC(=O)NC3=O)C4=O)CC2)c(F)cc1Nc1ncc2c(n1)N(C1CCCC1)CC(F)(F)C(=O)N2C (stereo not shown) [Compound 1, 4-((9-cyclopentyl-7,7-difluoro-5-methyl-6-oxo-6,7,8,9-tetrahydro-5H-pyrimido[4,5-b][1,4]diazepin-2-yl)amino)-N-(1-(2-(2-((2-(2,6-dioxopiperidin-3-yl)-1,3-dioxoisoindolin-4-yl)amino)ethoxy)ethyl)piperidin-4-yl)-2-fluoro-5-methoxybenzamide] | ≥ 80 | ≤ 0.05 | excellent PLK1 protein degradability |
